The text below walks through data of US20090275567A1, “2-HETEROCYCLOAMINO-4-IMIDAZOLYLPYRIMIDINES AS AGENTS FOR THE INHIBITION OF CELL PROLIFERATION” (priority 2006, published 2009).

The term IC50 denotes the point on the concentration scale where inhibition reaches its midpoint.

This assay has as its target T1, CDK2/Cyclin E (Homo sapiens, UniProt P24941).
T1 construct: made in house; host or cells: Sf21 (Spodoptera frugiperda) insect cells, baculovirus co-infection; the GST-Rb substrate was made in E. coli BL21 (DE3) pLysS
The assay is described as follows: in vitro kinase assay (Scintillation Proximity Assay), CDK2/Cyclin E, GST-Rb substrate. It counts as biochemical. To be noted: CDK2/Cyclin E partially-purified enzyme, 0.2 μM ATP, read-out: CDK2 inhibitory activity IC50. Here is the method: The compounds were tested in an in vitro kinase assay in 96 well format using Scintillation Proximity Assay (SPA—obtained from Amersham) for measuring incorporation of [γ-33-P]-Adenosine Triphosphate into a test substrate (GST-Retinoblastoma protein; GST-Rb). In each well was placed the compound to be tested (diluted in DMSO and water to correct concentrations) and in control wells either roscovitine as an inhibitor control or DMSO as a positive control. […]
The plates were sealed with Topseal-S plate sealers, left for two hrs then spun at 2500 rpm, 1124×g., for 5 mins. The plates were read on a Topcount for 30 seconds per well. […]
E. coli paste was resuspended in 10 ml/g of NETN buffer (50 mM Tris pH 7.5, 120 mM NaCl, 1 mM EDTA, 0.5% v/v NP-40, 1 mM PMSF, 1 ug/ml leupeptin, 1 ug/ml aprotinin and 1 ug/ml pepstatin) and sonicated for 2×45 seconds per 100 ml homogenate. […] The final product was analysed by Sodium Dodeca Sulfate (SDS) PAGE (Polyacrylamide gel) using 8-16% Tris-Glycine gels (Novex, San Diego, USA).
The open reading frames of CDK2 and Cyclin E were isolated by reverse transcriptase-PCR using HeLa cell and activated T cell mRNA as a template and cloned into the insect expression vector pVL1393 (obtained from Invitrogen 1995 catalogue number: V1392-20). […]

As to `CC(=O)N1CCC(Nc2nccc(-c3cnc(C)n3C(C)C)n2)CC1` [Example 29, 1-[4-[[4-(2-Methyl-3-propan-2-yl-imidazol-4-yl)pyrimidin-2-yl]amino]-1-piperidinyl]ethanone], the IC50 is 0.095 µM.
